Measured values published in patent publication US9221816B2, “2-oxo-2,3-dihydro-indoles for the treatment of CNS disorders” (Hoffmann-La Roche Inc., priority 2012, dated 2015).

test system: L-687,414-induced hyperlocomotion; experiment: L-687,414-induced hyperlocomotion (Digiscan locomotor activity); type: in vivo, mouse; conditions: dose ip 30, at the same time as s.c. 50 mg/kg L-687,414; % inhibition of horizontal activity; mice
Procedure: The authors described that hyperlocomotion induced by L-687,414 was inhibited by a series of known antipsychotic drugs. […] These findings predict antipsychotic activity for the present compounds, making them useful for the treatment of schizophrenia and other disorders as described above.
The described compounds of formula I and I-1 reduce L-687,414-induced hyperlocomotion. This was assessed by using a computerized Digiscan 16 Animal Activity Monitoring System (Omnitech Electronics, Columbus, Ohio) to quantify locomotor activity. Animals were kept under a 12 h light/dark cycle and experiments were performed during the light period. Each activity monitoring chamber consisted of a Plexiglas box (41×41×28 cm; W×L×H) with sawdust bedding on the floor surrounded by invisible horizontal and vertical infrared sensor beams. The test boxes were divided by a Plexiglas cross providing each mouse with 20×20 cm of moving space. Cages were connected to a Digiscan Analyzer linked to a computer that constantly collected the beam status information. Records of photocell beam interruptions for individual animals were taken every 5 min over the duration of the experimental session and the sum of the first 6 periods was used as the final parameter. Compounds were administered either p.o. 15 min before a s.c. injection of 50 mg/kg of L-687,414, or i.p. at the same time as a s.c. injection of 50 mg/kg of L-687,414. Mice were then transferred from their home cage to the recording chambers for a 15-min habituation phase allowing free exploration of the new environment. Horizontal activity was then recorded for a 30-min time period. The % inhibition of L-687,414-induced hyperlocomotion was calculated according to the equation: ((Veh+L-687,414 horizontal activity−drug+L-687,414 horizontal activity)/Veh+L-687,414 horizontal activity)×100
ID50 values, defined as doses of each compound producing 50% inhibition of L-687,414-induced hyperlocomotion, were calculated by linear regression analysis of a dose-response data using an Excel-based computer-fitting program.
As data was not presupposed to be normally distributed, groups treated with test compounds were statistically compared with the control (vehicle-treated) group using one-tailed Mann Whitney U tests. In statistics, the Mann-Whitney U test (also called the Mann-Whitney-Wilcoxon (MWW) or Wilcoxon rank-sum test) is a non-parametric statistical hypothesis test for assessing whether one of two samples of independent observations tends to have larger values than the other. It is one of the most well-known non-parametric significance tests. […] P values given in table 1 are one-tailed since only decreases in locomotion were expected and tested for (Mann, H. B., Whitney, D. R. (1947), “On a Test of Whether one of Two Random Variables is Stochastically Larger than the Other”, Annals of Mathematical Statistics, 18 (1), 50-60).

Row | Structure (SMILES) | Inhibition, ip [%]
1 | Cc1cc(C(=O)Nc2ccc3c(c2)NC(=O)C3(C)C)ccn1 [Example 1, N-(3,3-Dimethyl-2-oxo-2,3-dihydro-1H-indol-6-yl)-2-methyl-isonicotinamide] | 81.6
2 | CN1C(=O)C2(CCCC2)c2ccc(NC(=O)c3ccncc3)cc21 [Example 3, N-(1′-Methyl-2′-oxospiro[cyclopentane-1,3′-indoline]-6′-yl)isonicotinamide] | 83.3
3 | Cc1cc(C(=O)Nc2ccc3c(c2)N(C)C(=O)C3(C)C)ccn1 [Example 5, 2-Methyl-N-(1,3,3-trimethyl-2-oxoindolin-6-yl)isonicotinamide] | 77.2
4 | CN1C(=O)C(C)(C)c2cnc(NC(=O)c3ccncc3)cc21 [Example 6, N-(1,3,3-Trimethyl-2-oxo-2,3-dihydro-1H-pyrrolo[3,2-c]pyridin-6-yl)isonicotinamide] | 64.5
5 | CCN1C(=O)C(C)(C)c2ccc(NC(=O)c3ccncc3)cc21 [Example 7, N-(1-ethyl-3,3-dimethyl-2-oxoindolin-6-yl)isonicotinamide] | 90.4
6 | Cc1cc(C(=O)Nc2ccc3c(c2)N(C)C(=O)C3(C)C)nc(C)n1 [Example 8, 2,6-Dimethyl-N-(1,3,3-trimethyl-2-oxoindolin-6-yl)pyrimidine-4-carboxamide] | 70.7
7 | COc1ccc(C(=O)Nc2ccc3c(c2)N(C)C(=O)C3(C)C)cn1 [Example 10, 6-Methoxy-N-(1,3,3-trimethyl-2-oxoindolin-6-yl)nicotinamide] | 62.2
8 | Cc1ncc(C(=O)Nc2ccc3c(c2)N(C)C(=O)C3(C)C)c(C)n1 [Example 12, 2,4-Dimethyl-N-(1,3,3-trimethyl-2-oxoindolin-6-yl)pyrimidine-5-carboxamide] | 69.2
9 | CC1(C)C(=O)N(C2CC2)c2cc(NC(=O)c3ccncc3)ccc21 [Example 14, N-(1-Cyclopropyl-3,3-dimethyl-2-oxoindolin-6-yl)isonicotinamide] | 66.5
10 | COc1cnccc1C(=O)Nc1ccc2c(c1)N(C)C(=O)C2(C)C [Example 15, 3-Methoxy-N-(1,3,3-trimethyl-2-oxoindolin-6-yl)isonicotinamide] | 56.3
11 | Cc1cc(C(=O)Nc2ccc3c(c2)N(C2CC2)C(=O)C3(C)C)ccn1 [Example 17, N-(1-Cyclopropyl-3,3-dimethyl-2-oxoindolin-6-yl)-2-methylisonicotinamide] | 79.3
12 | CC1(C)C(=O)N(C2CC2)c2cc(NC(=O)c3cccnc3)ccc21 [Example 18, N-(1-Cyclopropyl-3,3-dimethyl-2-oxoindolin-6-yl)nicotinamide] | 68.8
13 | CN1C(=O)C(C)(C)c2cc(F)c(NC(=O)c3ccncc3)cc21 [Example 20, N-(5-Fluoro-1,3,3-trimethyl-2-oxoindolin-6-yl)isonicotinamide] | 87.3
14 | CCN1C(=O)C(C)(C)c2ccc(NC(=O)c3cccnc3)cc21 [Example 21, N-(1-Ethyl-3,3-dimethyl-2-oxoindolin-6-yl)nicotinamide] | 76.6
15 | CN1C(=O)C(C)(C)c2cc(F)c(NC(=O)c3cccnc3)cc21 [Example 24, N-(5-fluoro-1,3,3-trimethyl-2-oxoindolin-6-yl)nicotinamide] | 80.0
16 | Cc1cc(C(=O)Nc2ccc3c(c2F)N(C)C(=O)C3(C)C)ccn1 [Example 28, N-(7-fluoro-1,3,3-trimethyl-2-oxoindolin-6-yl)-2-methylisonicotinamide] | 74.7
17 | Cc1cc(C(=O)Nc2ccc3c(c2)N(C)C(=O)C3(C)C)c(F)cn1 [Example 33, 5-Fluoro-2-methyl-N-(1,3,3-trimethyl-2-oxoindolin-6-yl)isonicotinamide] | 78.6

Row | Structure (SMILES) | Inhibition, ip [%]
18 | Cc1cc(C(=O)Nc2cc3c(cc2Cl)C(C)(C)C(=O)N3C)ccn1 [Example 35, N-(5-Chloro-1,3,3-trimethyl-2-oxoindolin-6-yl)-2-methylisonicotinamide] | 57.3
19 | CC1(C)C(=O)N(C2CC2)c2cc(NC(=O)c3ccncc3)c(F)cc21 [Example 36, N-(1-cyclopropyl-5-fluoro-3,3-dimethyl-2-oxoindolin-6-yl)isonicotinamide] | 89.0
20 | CC(C)N1C(=O)C(C)(C)c2ccc(NC(=O)c3cccnc3)cc21 [Example 37, N-(1-Isopropyl-3,3-dimethyl-2-oxoindolin-6-yl)nicotinamide] | 64.0
21 | CC1(C)C(=O)N(C2CC2)c2cc(NC(=O)c3cccnc3)c(F)cc21 [Example 38, N-(1-Cyclopropyl-5-fluoro-3,3-dimethyl-2-oxoindolin-6-yl)nicotinamide] | 60.8
22 | CCN1C(=O)C(C)(C)c2ccc(NC(=O)c3ccnc(C)c3)cc21 [Example 39, N-(1-Ethyl-3,3-dimethyl-2-oxoindolin-6-yl)-2-methylisonicotinamide] | 58.6
23 | CCN1C(=O)C(C)(C)c2ccc(NC(=O)c3ccncc3Cl)cc21 [Example 40, 3-Chloro-N-(1-ethyl-3,3-dimethyl-2-oxoindolin-6-yl)isonicotinamide] | 72.9
24 | CCN1C(=O)C(C)(C)c2ccc(NC(=O)c3ccncc3F)cc21 [Example 41, N-(1-ethyl-3,3-dimethyl-2-oxoindolin-6-yl)-3-fluoroisonicotinamide] | 85.2
25 | CN1C(=O)C(C)(C)c2ccc(NC(=O)c3ccc(F)cc3)cc21 [Example 43, 4-Fluoro-N-(1,3,3-trimethyl-2-oxoindolin-6-yl)benzamide] | 88.0
26 | Cc1cc(C(=O)Nc2cc3c(cc2F)C(C)(C)C(=O)N3C2CC2)ccn1 [Example 46, N-(1-Cyclopropyl-5-fluoro-3,3-dimethyl-2-oxoindolin-6-yl)-2-methylisonicotinamide] | 72.7
27 | CN1C(=O)C(C)(C)c2cc(F)c(NC(=O)c3ccncc3Cl)cc21 [Example 51, 3-Chloro-N-(5-fluoro-1,3,3-trimethyl-2-oxoindolin-6-yl)isonicotinamide] | 80.1
28 | CC1(C)C(=O)N(CC2CC2)c2cc(NC(=O)c3ccncc3)ccc21 [Example 52, N-(1-(Cyclopropylmethyl)-3,3-dimethyl-2-oxoindolin-6-yl)isonicotinamide] | 78.8
29 | CC1(C)C(=O)N(CC2CC2)c2cc(NC(=O)c3ccncc3F)ccc21 [Example 53, N-(1-(Cyclopropylmethyl)-3,3-dimethyl-2-oxoindolin-6-yl)-3-fluoroisonicotinamide] | 89.9
30 | Cc1cc(C(=O)Nc2ccc3c(c2)N(C2CC2)C(=O)C3(C)C)c(F)cn1 [Example 54, N-(1-Cyclopropyl-3,3-dimethyl-2-oxoindolin-6-yl)-5-fluoro-2-methylisonicotinamide] | 55.6
31 | O=C(Nc1ccc2c(c1)N(C1CC1)C(=O)C21CC1)c1ccncc1 [Example 55, N-(1′-Cyclopropyl-2′-oxospiro[cyclopropane-1,3′-indoline]-6′-yl)isonicotinamide] | 61.7
32 | O=C(Nc1ccc2c(c1)N(C1CC1)C(=O)C21CC1)c1ccncc1F [Example 57, N-(1′-Cyclopropyl-2′-oxospiro[cyclopropane-1,3′-indoline]-6′-yl)-3-fluoroisonicotinamide] | 60.5
33 | CC1(C)C(=O)N(C2COC2)c2cc(NC(=O)c3ccncc3F)ccc21 [Example 59] | 88.6

same assay, conditions: p.o. 15 min before s.c. 50 mg/kg L-687,414; dose producing 50% inhibition of hyperlocomotion; mice

Row | Structure (SMILES) | ID50 po [mg/kg]
34 | CN1C(=O)C(C)(C)c2ccc(NC(=O)c3ccncc3)cc21 [Example 2, N-(1,3,3-Trimethyl-2-oxo-2,3-dihydro-1H-indol-6-yl)-isonicotinamide] | 2.06
35 | CN1C(=O)C(C)(C)c2ccc(NC(=O)c3cccnc3)cc21 [Example 4, N-(1,3,3-Trimethyl-2-oxoindolin-6-yl)nicotinamide] | 1.84
36 | Cc1ccncc1C(=O)Nc1ccc2c(c1)N(C)C(=O)C2(C)C [Example 9, 4-Methyl-N-(1,3,3-trimethyl-2-oxoindolin-6-yl)nicotinamide] | 6.6
37 | CN1C(=O)C(C)(C)c2ccc(NC(=O)c3ccncc3Cl)cc21 [Example 27, 3-Chloro-N-(1,3,3-trimethyl-2-oxoindolin-6-yl)isonicotinamide] | 1.95
38 | CC1(C)C(=O)N(C2CC2)c2cc(NC(=O)c3ccncc3F)ccc21 [Example 31, N-(1-Cyclopropyl-3,3-dimethyl-2-oxoindolin-6-yl)-3-fluoroisonicotinamide] | 1
